This data set can be described thus: Serum ALT and GGT after injections in mice. The data set is classed as in vivo. To be noted: positive control, one day after intraperitoneal injection of 40 µl of 50% in mineral oil, n=4. The method, then:
Blood obtained from the retro-orbit sinus was analyzed for serum concentration of hGH using the RIA, HGH-TGES 100T kit from Nichols Institute (San Juan Capistrano, CA). Serum ALT and GGT levels were done using EKTACHEM DT slides and a KODAK EKTACHEM DT 60 ANALYZER as recommended by the manufacturer (Kodak. Rochester, NY)
Similar results were also obtained when bile ducts were injected with 100 µg of pCILuc in 1 ml of 15% mannitol and 2.5 units heparin/ml in normal saline solution. A mean total luciferase protein/liver of 15.39 µg/liver (Fig. 1A. BD+CL) was obtained when the hepatic vein was clamped as compared to a mean total luciferase protein/liver of 1.33 µg/liver (Fig 1A. BD-CL) without occluding the hepatic vein If mannitol was omitted then the bile duct injections without clamping any blood vessels yielded approximately 15-fold less luciferase (0 086 µg/liver ± 0.06, n = 25). […] Serum ALT and GGT assays were performed on mice one and eight days after each of the above injections with pCILuc (4 mice for each condition). No increases in […] were observed after any of the injections including the bile duct injections. Serum ALT levels increased to 200-400 U/L one day after portal vein and bile duct injections. One day after IVC injections serum ALT levels increased to ∼1500 U/L in half of the mice but was only ∼250 U/L in the other half. […]

One compound from patent EP0996337B1, “A PROCESS OF DELIVERING A POLY[…] THE VASCULAR SYSTEM” (Mirus Bio Corporation, priority 1997, dated 1998) can be followed below.

Regarding `ClC(Cl)(Cl)Cl` [carbon tetrachloride], the “Serum ALT, average” value is given as 25,900 U/L.
